Tests used:
Bovine brain tubulin = biological target: T1, Bovine brain tubulin (Bos taurus, UniProt P81947+Q6B856); experiment: Tubulin turbidity assay (GTP-induced tubulin polymerization); assay type: biochemical
T1 construct: purchased Sigma, St. Louis, Mo; host or cells: bovine brain (tissue-purified)
Experimental: Bovine brain tubulin (Sigma, St. Louis, Mo.) was used in standard turbidity assays to test the effects of compounds COBRA-1 and COBRA-2 as well as control compounds on GTP-induced tubulin polymerization. Compounds (in 1% DMSO) were added to tubulin (1 mg/ml, 0.1M MES, 1 mM EGTA, 0.5 mM MgCl2, 0.1 mM EDTA, 2.5M glycerol, 1 μg/ml leupeptin, 1 μg/ml aprotinin, pH 6.5) followed by stimulation of polymerization with 1 mM GTP at 2 minutes and 1 mM taxol at 30 minutes. Optical density was measured using a Becton Dickinson UV spectrophotometer (350 nm) using a thermostated cuvette holder to keep the reaction at 37° C. Readings obtained from the spectro-photometer were standardized by subtracting the background absorbance of the compound in water from the sample reading following drug addition.
To test the latitude of the structure at the opposite end of the molecule from the long chain (head region), three new COBRA compounds were synthesized according to the schemes shown below: COBRA-3, COBRA-4, and COBRA-5. Each of these compounds was then tested for tubulin depolymerization activity, using the tubidity assay described in the Examples above.
Each of these compounds was assayed for effects on GTP-dependent tubulin polymerization, using the methods described above.

human cell lines = experiment: Anti-cancer activity against human cell lines; assay type: cell-based

T1 sequence (P81947 whole entry): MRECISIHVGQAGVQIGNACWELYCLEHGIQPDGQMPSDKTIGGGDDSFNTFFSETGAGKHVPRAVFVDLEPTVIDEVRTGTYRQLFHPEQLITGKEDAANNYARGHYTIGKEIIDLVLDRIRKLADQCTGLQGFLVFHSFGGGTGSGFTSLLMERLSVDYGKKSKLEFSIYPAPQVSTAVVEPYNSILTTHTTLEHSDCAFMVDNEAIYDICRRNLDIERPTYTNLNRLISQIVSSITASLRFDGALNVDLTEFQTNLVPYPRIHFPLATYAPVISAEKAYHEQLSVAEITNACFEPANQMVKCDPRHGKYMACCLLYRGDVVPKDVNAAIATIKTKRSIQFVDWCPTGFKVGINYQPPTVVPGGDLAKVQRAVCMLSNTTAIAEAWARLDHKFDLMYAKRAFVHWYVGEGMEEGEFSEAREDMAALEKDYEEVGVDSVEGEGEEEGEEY
T1 sequence (Q6B856 whole entry): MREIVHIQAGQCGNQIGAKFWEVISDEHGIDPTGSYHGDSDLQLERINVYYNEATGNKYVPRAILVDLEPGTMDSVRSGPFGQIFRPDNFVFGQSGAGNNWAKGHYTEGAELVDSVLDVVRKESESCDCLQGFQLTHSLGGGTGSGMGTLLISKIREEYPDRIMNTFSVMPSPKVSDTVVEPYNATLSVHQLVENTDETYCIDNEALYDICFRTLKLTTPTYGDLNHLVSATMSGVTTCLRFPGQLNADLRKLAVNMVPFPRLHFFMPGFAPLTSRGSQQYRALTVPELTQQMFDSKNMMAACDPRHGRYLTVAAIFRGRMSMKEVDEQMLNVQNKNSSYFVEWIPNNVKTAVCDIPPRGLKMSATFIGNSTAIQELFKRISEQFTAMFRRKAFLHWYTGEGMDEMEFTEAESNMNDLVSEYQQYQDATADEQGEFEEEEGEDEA

## CCCCCCCCCCCCSCC(NC(C)=O)C(=O)CCl (stereo not drawn) [COBRA-5, N-Ac-S-dodecyl-Cys Chloromethyl Ketone]
Bovine brain tubulin; 1 mg/ml tubulin, 1 mM GTP, 37° C., OD 350 nm
  effect on GTP-dependent tubulin polymerization (turbidity): caused partial depolymerization of tubulin and completely inhibited its polymerization in the presence of GTP
Bovine brain tubulin; stated in the tubulin polymerization paragraph, assay not named
  IC90: 10 µM
Human cell lines
  anti-cancer activity against human cell lines: very potent anti-cancer activity
